From US20250268877A1 (BIOGEN MA INC., priority 2020, published 2025)
≈ marks a conversion by molar mass, not a printed value. Read-outs that look alike come from different tables or passages of the source.

How the values were obtained:
[1] = Kpuu assay (in vivo brain-to-plasma partition, unbound); conditions: intravenous infusion 4 to 24 h, unbound drug partition coefficient; for Kp: brain (unbound) versus plasma (unbound), read-out: Brain Kpu,u
Experimental: For the brain-to-plasma partition coefficient (Kp) evaluation, a dosing solution was intravenously infused into animals at a constant flow rate for 4 to 24 h. Blood samples were serially collected during infusion, and CSF and brain samples were harvested at the end of infusion.
Tissue samples were typically homogenized in phosphate buffer saline (PBS) using a bead ruptor.
CSF samples were typically diluted with 8% BSA in PBS to prevent from non-specific binding. Artificial CSF (aCSF) is used as the surrogate matrix.
Calibration curves were prepared by spiking the analyte(s) into blank matrices, which were processed together with plasma, tissue homogenate and/or CSF samples by protein precipitation using a proper organic solvent (e.g. acetonitrile and methanol) containing generic analogue internal standards (e.g. verapamil, chrysin and glyburide). Matrix matching was used when analyzing multiple matrices in the same run. Samples above the upper limit of quantitation (ULOQ) needed to be diluted into the calibration range using either a pre-extraction or post-extraction dilution approach.
Processed samples were analyzed by LC-MS/MS using a proper method performing within the acceptable sensitivity, selectivity, precision and accuracy. For an analytical run to be accepted, over 75% of the calibration standards in the dual calibration curves needed to be within 20% of the nominal concentrations.
Brain concentrations were compared against plasma concentrations at the corresponding timepoint for the calculation of partition coefficient (Kp).
Unbound drug partition coefficient (Kpuu), defined as the ratio of unbound drug partition across the blood-brain barrier, was calculated using the equation below:
[formula] • Cb: measured total drug concentration in brain • Fub: unbound drug fraction in brain • Cp: measured total drug concentration in plasma • Fup: unbound drug fraction in plasma Compound- or study-specific PK analysis that deviates from the typical procedure might be used when necessary, which will be documented in a study specific protocol included in the data upload.
Mix thoroughly. • This spiked plasma solution is shown in FIG. 1. • 3) Prepare a chilled ‘crash’ solution of internal standard in a solvent solution. • Pipette 200 μL of 25 ng/mL solution of internal standard, CPDPX (8-Cyclopentyl-1,3-dipropylxanthine, Sigma-Aldrich, C101) in 1:1 acetonitrile/methanol solvent solution into a 1 mL 96-well plate. • Chill on ice or refrigerate at 4° C. • This solution becomes the ‘Crash’ plate in FIG. 1. • 4) From remaining spiked plasma, remove 50 μL (T=0 h) of each plasma sample and place into a crash plate which contains 200 μL. To matrix match, add 50 μL of blank buffer to the crashed sample (similar to PPB samples). […] Mix crash plate thoroughly. • From remaining spiked plasma, remove 50 μL (T=4 h) of each plasma sample and place into a crash plate. To matrix match, add 50 μL of blank buffer to the crashed sample (similar to the protein binding samples). • Centrifuge crash plate at 3900 rpm for 10 minutes at 4° C.
% Free=(PAR of buffer side/PAR of plasma side)*100 • PAR—Peak area ratio (PAR)
Fu=% Free/100 • Fu=fraction unbound

MDR1 = MDR1 (Homo sapiens (Human), UniProt P08183); test: MDR1-MDCK assay (apparent permeability, efflux ratio); format: in vitro ADME; conditions: human, MDCK-MDR1, 1 μM
IRAK4 = IRAK4 (Homo sapiens (Human), UniProt Q9NWZ3); test: IRAK4 2-hour 1 mM ATP Biochemical Assay (MesoScale Detection format); conditions: 100 pM IRAK4, read-out: IRAK4 IC50
[2] = Kinetic solubility assay (CLND), potassium phosphate buffer pH 6.8; format: physicochemical; conditions: potassium phosphate buffer, kinetic from dmso stock, pH 6.8, 2% DMSO, 24 hours at ambient temperature; for solubility at 24 h: pH 6.8, aqueous buffer
Text: • Inject filtrates into the nitrogen detector for quantification on Analiza's Automated Discovery Workstation (ADW). • Solubility results generated in μg/mL

[3] = biological target: catalytical domain of human IRAK4 (a.a. 163-460) (Homo sapiens (Human), UniProt Q9NWZ3); test: IRAK4 SPR binding assay; conditions: single-cycle, 1:1 interaction model
Experimental: IRAK4 SPR. IRAK4 SPR was set up on Biacore T200 or S200 by using Biotin CAPture kit (Cytiva). In brief, purified IRAK4 in capture buffer (25 mM Hepes, 150 mM NaCl, 1 mM TCEP, pH7.4) was captured onto a CAP sensor surface via the interaction of biotin to streptavidin Typical capture level is between 1,000 RU to 2,000 RU, Compound binding kinetics to IRAK4 was examined with running buffer (25 mM Hepes, 150 mM NaCl, 1 mM TCEP, 2% DMSO, pH7.4). Serially diluted compounds were injected at 50 μl/min in single-cycle for 60-s association of each injection followed by 360-s dissociation at the end. The data was fitted to global 1:1 interaction model.

[4] = read-out: MDR1-MDCK_Efflux Ratio

Chain of catalytical domain of human IRAK4 (a.a. 163-460) (Q9NWZ3 163-460): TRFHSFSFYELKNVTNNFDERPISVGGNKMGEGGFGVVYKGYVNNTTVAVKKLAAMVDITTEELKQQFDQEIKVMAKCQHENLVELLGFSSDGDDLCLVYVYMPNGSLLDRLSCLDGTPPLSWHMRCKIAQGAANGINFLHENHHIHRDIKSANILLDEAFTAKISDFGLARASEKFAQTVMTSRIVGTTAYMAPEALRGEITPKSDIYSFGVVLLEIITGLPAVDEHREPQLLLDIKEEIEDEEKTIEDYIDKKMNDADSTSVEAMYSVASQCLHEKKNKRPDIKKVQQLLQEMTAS
Chain of MDR1 (P08183 whole entry): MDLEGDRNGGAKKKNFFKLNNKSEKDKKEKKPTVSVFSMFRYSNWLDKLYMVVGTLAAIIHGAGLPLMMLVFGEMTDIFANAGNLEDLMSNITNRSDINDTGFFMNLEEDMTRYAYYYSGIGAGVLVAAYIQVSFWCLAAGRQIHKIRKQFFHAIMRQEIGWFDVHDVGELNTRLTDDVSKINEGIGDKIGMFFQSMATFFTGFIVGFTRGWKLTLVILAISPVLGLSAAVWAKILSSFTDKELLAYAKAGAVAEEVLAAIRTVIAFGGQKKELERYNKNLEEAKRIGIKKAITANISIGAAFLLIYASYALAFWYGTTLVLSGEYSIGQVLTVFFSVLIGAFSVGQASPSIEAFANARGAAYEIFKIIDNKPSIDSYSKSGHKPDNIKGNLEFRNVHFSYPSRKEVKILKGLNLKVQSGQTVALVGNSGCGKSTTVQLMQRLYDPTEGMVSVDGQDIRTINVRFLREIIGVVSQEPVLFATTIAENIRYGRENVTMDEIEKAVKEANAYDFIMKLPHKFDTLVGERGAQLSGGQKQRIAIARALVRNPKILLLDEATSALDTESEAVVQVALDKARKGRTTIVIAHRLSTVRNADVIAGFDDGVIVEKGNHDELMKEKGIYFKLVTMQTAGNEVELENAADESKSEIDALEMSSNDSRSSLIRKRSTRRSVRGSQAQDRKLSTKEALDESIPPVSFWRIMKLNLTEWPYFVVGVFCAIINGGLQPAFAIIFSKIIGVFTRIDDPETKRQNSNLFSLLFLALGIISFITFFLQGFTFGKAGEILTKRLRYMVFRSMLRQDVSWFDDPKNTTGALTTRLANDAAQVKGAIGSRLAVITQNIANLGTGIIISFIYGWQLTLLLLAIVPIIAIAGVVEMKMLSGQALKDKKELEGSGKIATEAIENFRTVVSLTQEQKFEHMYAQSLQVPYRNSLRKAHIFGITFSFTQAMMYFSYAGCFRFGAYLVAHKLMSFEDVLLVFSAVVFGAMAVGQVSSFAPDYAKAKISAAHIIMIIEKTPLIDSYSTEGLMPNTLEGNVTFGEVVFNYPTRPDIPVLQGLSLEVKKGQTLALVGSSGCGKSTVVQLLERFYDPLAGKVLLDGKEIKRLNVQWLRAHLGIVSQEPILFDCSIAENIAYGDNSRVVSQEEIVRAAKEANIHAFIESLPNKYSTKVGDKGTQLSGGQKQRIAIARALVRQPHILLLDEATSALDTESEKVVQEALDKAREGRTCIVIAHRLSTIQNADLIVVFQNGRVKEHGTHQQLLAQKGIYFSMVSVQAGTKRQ
Chain of IRAK4 (Q9NWZ3 whole entry): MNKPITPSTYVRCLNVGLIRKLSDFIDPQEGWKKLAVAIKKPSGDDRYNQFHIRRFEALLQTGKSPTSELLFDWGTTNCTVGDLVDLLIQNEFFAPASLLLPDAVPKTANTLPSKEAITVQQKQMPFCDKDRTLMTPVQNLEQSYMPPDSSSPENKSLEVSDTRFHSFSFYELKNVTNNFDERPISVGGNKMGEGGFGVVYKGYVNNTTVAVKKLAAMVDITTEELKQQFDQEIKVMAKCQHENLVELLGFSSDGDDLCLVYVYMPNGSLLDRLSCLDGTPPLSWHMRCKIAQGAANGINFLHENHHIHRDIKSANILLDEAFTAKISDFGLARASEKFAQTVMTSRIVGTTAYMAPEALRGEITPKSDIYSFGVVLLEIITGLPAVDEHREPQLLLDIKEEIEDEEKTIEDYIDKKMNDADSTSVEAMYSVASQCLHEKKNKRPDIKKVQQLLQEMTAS

**Q.** With `C[C@@]12CC[C@@](n3cc4cc(C(=O)Nc5cccn(C6CC6)c5=O)c(OC5CCC5)cc4n3)(CO1)C2` (single isomer, unassigned) [Example 40] as the molecule, how does the “Brain Kpu,u” value [1] read?
**A.** 0.8

**Q.** What about the efflux ratio at 120 min, 1 μM (MDR1; [4]) of the same molecule?
**A.** 1.32

**Q.** And the IC50 (IRAK4)?
**A.** 0.4 nM

**Q.** And the solubility at 24 h [2]?
**A.** 19.9 µg/mL (≈ 41.9 µM)

**Q.** For `CC(C)Oc1nc2nn([C@]34CC[C@](C)(C3)OC4)cc2cc1C(=O)Nc1cccn(C2CC2)c1=O` (single isomer, unassigned) [Example 48], which “IRAK4 SPR binding Half Life” value [3] is on record?
**A.** 58 min

**Q.** What about the efflux ratio at 120 min, 1 μM (MDR1; [4]) of the same molecule?
**A.** 1.73

**Q.** What about the IC50 (IRAK4) of the same molecule?
**A.** 0.2 nM

**Q.** What about the solubility at 24 h [2] of the same molecule?
**A.** 1.48 µg/mL (≈ 3.19 µM)

**Q.** Which Kp [1] does the source give for `CC(C)Oc1cc2nn([C@@]34CC[C@@](C)(C3)OC4)cc2cc1C(=O)Nc1cccn([C@@H]2C[C@H]2F)c1=O` (single isomer, unassigned) [Example 59] here?
**A.** 1.3

**Q.** And the efflux ratio at 120 min, 1 μM (MDR1; [4])?
**A.** 1.59

**Q.** And the IC50 (IRAK4)?
**A.** 0.5 nM

**Q.** And the solubility at 24 h [2]?
**A.** 55.4 µg/mL (≈ 115 µM)

**Q.** Which “IRAK4 SPR binding Half Life” value [3] does the source give for `COCC12CC(n3cc4cc(C(=O)Nc5cccn([C@H]6C[C@@H]6F)c5=O)c(OC(C)C)nc4n3)(CO1)C2` (single isomer, unassigned) [Example 64] here?
**A.** 47.2 min

**Q.** And the efflux ratio at 120 min, 1 μM (MDR1; [4])?
**A.** 4.35

**Q.** What about the IC50 (IRAK4) of the same molecule?
**A.** 0.4 nM

**Q.** What about the solubility at 24 h [2] of the same molecule?
**A.** 58.9 µg/mL (≈ 118 µM)

**Q.** With `CC(C)Oc1cc2nn(C34COC(CF)(C3)C4)cc2cc1C(=O)Nc1cccn([C@@H]2C[C@H]2C)c1=O` (single isomer, unassigned) [Example 69] as the molecule, how does the Kp [1] read?
**A.** 0.7

**Q.** What about the efflux ratio at 120 min, 1 μM (MDR1; [4]) of the same molecule?
**A.** 1.74

**Q.** And the IC50 (IRAK4)?
**A.** 0.5 nM

**Q.** And the solubility at 24 h [2]?
**A.** 8.2 µg/mL (≈ 17.1 µM)

**Q.** What does the source list for `COCC12CC(n3cc4cc(C(=O)Nc5cccn([C@H]6C[C@H]6F)c5=O)c(OC5CC5)nc4n3)(CO1)C2` (single isomer, unassigned) [Example 86]?
**A.** IRAK4 SPR binding Half Life [3]: 74 min; efflux ratio at 120 min, 1 μM (MDR1; [4]): 18.7; IC50 (IRAK4): 0.2 nM; solubility at 24 h [2]: 13.9 µg/mL (≈ 28.1 µM)

**Q.** Which results are given for `O=C(Nc1cccn([C@H]2C[C@H]2F)c1=O)c1cc2cn([C@]34CC[C@H](C3)OC4)nc2nc1OC1CC1` (single isomer, unassigned) [Example 88]?
**A.** Kp [1]: 0.2; efflux ratio at 120 min, 1 μM (MDR1; [4]): 9.11; IC50 (IRAK4): 0.2 nM; solubility at 24 h [2]: 59.3 µg/mL (≈ 127 µM)

**Q.** With `CC(C)Oc1cc2nn(C34COC(C)(C3)C4)cc2cc1C(=O)Nc1cccn(C)c1=O` [Comparator 1A, 6-isopropoxy-N-(1-methyl-2-oxo-1,2-dihydropyridin-3-yl)-2-(1-methyl-2-oxabicyclo[2.1.1]hexan-4-yl)-2H-indazole-5-carboxamide, reference compound] as the molecule, how does the Kp ([1]; comparator table) read?
**A.** 1

**Q.** And the “IRAK4 SPR binding Half Life” value ([3]; comparator table)?
**A.** 9.0 min

**Q.** And the efflux ratio at 120 min, 1 μM (MDR1; comparator table, read-out: MDR1-MDCK Efflux Ratio)?
**A.** 1.2

**Q.** And the solubility kinetic at 24 h ([2]; aqueous buffer, comparator table)?
**A.** 60 µg/mL (≈ 142 µM)

**Q.** Which Kp [1] does the source give for `CC(C)Oc1nc2nn(C[C@@H]3CCOC3)cc2cc1C(=O)Nc1cccn(C2CC2)c1=O` [Example 4, (S)—N-(1-cyclopropyl-2-oxo-1,2-dihydropyridin-3-yl)-6-isopropoxy-2-((tetrahydrofuran-3-yl)methyl)-2H-pyrazolo[3,4-b]pyridine-5-carboxamide] here?
**A.** 0.4

**Q.** And the efflux ratio at 120 min, 1 μM (MDR1; [4])?
**A.** 6.36

**Q.** What about the IC50 (IRAK4) of the same molecule?
**A.** 0.4 nM

**Q.** And the solubility at 24 h [2]?
**A.** 43 µg/mL (≈ 98.2 µM)

**Q.** With `CC(C)Oc1nc2nn(C[C@H]3CCOC3)cc2cc1C(=O)Nc1cccn(C2CC2)c1=O` [Example 5, (R)—N-(1-cyclopropyl-2-oxo-1,2-dihydropyridin-3-yl)-6-isopropoxy-2-((tetrahydrofuran-3-yl)methyl)-2H-pyrazolo[3,4-b]pyridine-5-carboxamide] as the molecule, how does the Kp [1] read?
**A.** 0.8

**Q.** And the efflux ratio at 120 min, 1 μM (MDR1; [4])?
**A.** 4.88

**Q.** And the IC50 (IRAK4)?
**A.** 0.2 nM

**Q.** What about the solubility at 24 h [2] of the same molecule?
**A.** 45.6 µg/mL (≈ 104 µM)

**Q.** Which Kp [1] does the source give for `COCC12CC(n3cc4cc(C(=O)Nc5cccn(C6CC6)c5=O)c(OC(C)C)nc4n3)(CO1)C2` [Example 11, N-(1-cyclopropyl-2-oxo-1,2-dihydropyridin-3-yl)-6-isopropoxy-2-(1-(methoxymethyl)-2-oxabicyclo[2.1.1]hexan-4-yl)-2H-pyrazolo[3,4-b]pyridine-5-carboxamide] here?
**A.** 0.9

**Q.** And the efflux ratio at 120 min, 1 μM (MDR1; [4])?
**A.** 4.8

**Q.** And the IC50 (IRAK4)?
**A.** 0.2 nM

**Q.** And the solubility at 24 h [2]?
**A.** 36 µg/mL (≈ 75.1 µM)

**Q.** With `COCC12CC(n3cc4cc(C(=O)Nc5cccn(C6CC6)c5=O)c(OC(C)C)cc4n3)(CO1)C2` [Example 12, N-(1-cyclopropyl-2-oxo-1,2-dihydropyridin-3-yl)-6-isopropoxy-2-(1-(methoxymethyl)-2-oxabicyclo[2.1.1]hexan-4-yl)-2H-indazole-5-carboxamide] as the molecule, how does the Kp [1] read?
**A.** 0.7

**Q.** What about the efflux ratio at 120 min, 1 μM (MDR1; [4]) of the same molecule?
**A.** 2.82

**Q.** What about the IC50 (IRAK4) of the same molecule?
**A.** 0.5 nM

**Q.** What about the solubility at 24 h [2] of the same molecule?
**A.** 67.7 µg/mL (≈ 141 µM)

**Q.** What does the source list for `CC(C)Oc1nc2nn([C@@H]3CCCOC3)cc2cc1C(=O)Nc1cccn(C2CC2)c1=O` [Example 17, (R)—N-(1-cyclopropyl-2-oxo-1,2-dihydropyridin-3-yl)-6-isopropoxy-2-(tetrahydro-2H-pyran-3-yl)-2H-pyrazolo[3,4-b]pyridine-5-carboxamide]?
**A.** Kp [1]: 0.5; efflux ratio at 120 min, 1 μM (MDR1; [4]): 2.6; IC50 (IRAK4): 0.2 nM; solubility at 24 h [2]: 50.4 µg/mL (≈ 115 µM)

**Q.** Which results are given for `CC12CC(n3cc4cc(C(=O)Nc5cccn([C@H]6C[C@H]6F)c5=O)c(OC5CCC5)nc4n3)(CO1)C2` [Example 27, 6-cyclobutoxy-N-(1-((1S,2R)-2-fluorocyclopropyl)-2-oxo-1,2-dihydropyridin-3-yl)-2-(1-methyl-2-oxabicyclo[2.1.1]hexan-4-yl)-2H-pyrazolo[3,4-b]pyridine-5-carboxamide]?
**A.** Kp [1]: 0.7; efflux ratio at 120 min, 1 μM (MDR1; [4]): 5.38; IC50 (IRAK4): 0.1 nM; solubility at 24 h [2]: 1.2 µg/mL (≈ 2.5 µM)

**Q.** Which results are given for `COCC12CC(n3cc4cc(C(=O)Nc5cccn([C@H]6C[C@H]6F)c5=O)c(OC(C)C)nc4n3)(CO1)C2` [Example 49, N-(1-((1S,2R)-2-fluorocyclopropyl)-2-oxo-1,2-dihydropyridin-3-yl)-6-isopropoxy-2-(1-(methoxymethyl)-2-oxabicyclo[2.1.1]hexan-4-yl)-2H-pyrazolo[3,4-b]pyridine-5-carboxamide]?
**A.** Kp [1]: 0.4; efflux ratio at 120 min, 1 μM (MDR1; [4]): 9.67; IC50 (IRAK4): 0.1 nM; solubility at 24 h [2]: 62.3 µg/mL (≈ 125 µM)

**Q.** For `CC(C)Oc1cc2nn(C34COC(C3)C4)cc2cc1C(=O)Nc1cccn([C@H]2C[C@H]2F)c1=O` [Example 68, 2-(2-oxabicyclo[2.1.1]hexan-4-yl)-N-(1-((1S,2R)-2-fluorocyclopropyl)-2-oxo-1,2-dihydropyridin-3-yl)-6-isopropoxy-2H-indazole-5-carboxamide], which Kp [1] is on record?
**A.** 0.4

**Q.** And the efflux ratio at 120 min, 1 μM (MDR1; [4])?
**A.** 8.61

**Q.** What about the IC50 (IRAK4) of the same molecule?
**A.** 0.2 nM

**Q.** What about the solubility at 24 h [2] of the same molecule?
**A.** 45.3 µg/mL (≈ 100 µM)

**Q.** With `COCC12CC(n3cc4cc(C(=O)Nc5cccn([C@H]6C[C@H]6C)c5=O)c(OC(C)C)nc4n3)(CO1)C2` [Example 77, 6-isopropoxy-2-(1-(methoxymethyl)-2-oxabicyclo[2.1.1]hexan-4-yl)-N-(1-((1S,2R)-2-methylcyclopropyl)-2-oxo-1,2-dihydropyridin-3-yl)-2H-pyrazolo[3,4-b]pyridine-5-carboxamide] as the molecule, how does the Kp [1] read?
**A.** 0.9

**Q.** And the efflux ratio at 120 min, 1 μM (MDR1; [4])?
**A.** 2.09

**Q.** And the IC50 (IRAK4)?
**A.** 0.4 nM

**Q.** And the solubility at 24 h [2]?
**A.** 51 µg/mL (≈ 103 µM)

**Q.** Which results are given for `CC(C)Oc1nc2nn(C34COC(C3)C4)cc2cc1C(=O)Nc1cccn([C@H]2C[C@H]2C)c1=O` [Example 80, 2-(2-oxabicyclo[2.1.1]hexan-4-yl)-6-isopropoxy-N-(1-((1S,2R)-2-methylcyclopropyl)-2-oxo-1,2-dihydropyridin-3-yl)-2H-pyrazolo[3,4-b]pyridine-5-carboxamide]?
**A.** Kp [1]: 1; efflux ratio at 120 min, 1 μM (MDR1; [4]): 4.42; IC50 (IRAK4): 0.5 nM; solubility at 24 h [2]: 32.4 µg/mL (≈ 72.1 µM)
